pIC50: −log10 of the molar value.
Target: T1, TACE (ADAM17) (Homo sapiens, UniProt P78536)
T1 construct: made in house; host or cells: mammalian cells or insect cells
Assay: TACE (ADAM17) inhibition test
Assay type: biochemical
Conditions: fluorescent synthetic substrate, 37° C. for 1.5 hours; read-out: TACE IC50
Source text: The nucleotide sequence of TACE has been reported by Moss et al. (Moss, M. L. et al., Nature 1997, vol. 385, pp. 733-736). Based on this information, the cDNA of TACE was obtained according to the prescribed method from THP-1 cells or the like, and then incorporated the cDNA into an expression vector. Next, this vector was transformed into mammalian cells or insect cells, and TACE protein was expressed. The TACE protein was isolated, and used as an enzyme. Further, a fluorescent synthetic substrate Nma(N-methylanthranilic acid)-Leu-Ala-Gln-Ala-Val-Arg-Ser-Ser-Lys(Dnp(dinitrophenyl))-D-Arg-NH2 including the TACE-cleaved sequence of a membrane-bound TNF was used as a substrate. The enzyme reaction was carried out by adding 1.8 μL of a solution of the test substance to 90 μL of a fluorescent synthetic substrate prepared with an assay buffer B (50 mM tris-hydrochloric acid buffer (pH 7.5) including 200 mM sodium chloride, 5 mM calcium chloride, 10 μM zinc sulfate, and 0.05% PLURONIC F-68), then mixing 90 μL of a TACE enzyme solution prepared with an assay buffer A (50 mM tris-hydrochloric acid buffer (pH 7.5) including 200 mM sodium chloride, 5 mM calcium chloride, 10 μM zinc sulfate, and 2 mg/mL bovine serum albumin) and reacting at 37° C. for 1.5 hours. Enzyme activity was then determined by measuring with a fluorescence intensity meter (Labsystems, Fluoroskan Ascent) at an excitation wavelength of 355 nm and a measurement wavelength of 460 nm. The 50% inhibitory concentration (IC50) of the test substances was calculated by comparing enzyme activity in the presence and the absence of the test substance to determine the inhibition rate. Further, test substances having an IC50 strength of less than 100 nM were evaluated as “A”, and test substances having an IC50 strength of 100 nM or more were evaluated as “B”.

T1 sequence (P78536 215-824): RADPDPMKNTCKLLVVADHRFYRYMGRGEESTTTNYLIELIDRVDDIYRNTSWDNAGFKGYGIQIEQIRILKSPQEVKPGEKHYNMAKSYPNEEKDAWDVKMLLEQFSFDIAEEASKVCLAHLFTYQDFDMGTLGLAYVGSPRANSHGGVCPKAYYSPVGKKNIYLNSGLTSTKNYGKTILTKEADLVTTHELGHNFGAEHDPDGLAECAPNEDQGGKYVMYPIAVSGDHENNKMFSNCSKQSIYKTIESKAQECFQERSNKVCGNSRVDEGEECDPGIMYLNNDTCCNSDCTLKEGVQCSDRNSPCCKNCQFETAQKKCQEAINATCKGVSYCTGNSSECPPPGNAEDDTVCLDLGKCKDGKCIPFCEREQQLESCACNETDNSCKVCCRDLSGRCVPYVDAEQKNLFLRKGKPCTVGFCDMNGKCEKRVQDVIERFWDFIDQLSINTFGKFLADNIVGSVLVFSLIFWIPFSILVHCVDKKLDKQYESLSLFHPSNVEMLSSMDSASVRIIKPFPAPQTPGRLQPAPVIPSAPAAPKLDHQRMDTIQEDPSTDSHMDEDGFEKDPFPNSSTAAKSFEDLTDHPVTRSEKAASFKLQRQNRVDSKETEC

Q: How did the pIC50 turn out when `Cc1cc(C2(Cn3cccc(C)c3=O)NC(=O)NC2=O)ccc1OC1CCCC1` (racemic) [Compound I-39, 5-[4-(cyclopentyloxy)-3-methylphenyl]-5-[(3-methyl-2-oxopyridin-1(2H)-yl)methyl]imidazolidine-2,4-dione] was run?
A: Its pIC50 is over 7.00.

Q: `COc1ccc(-c2ccc(C3(Cn4cccc(C)c4=O)NC(=O)NC3=O)cc2)cc1` (racemic) [Compound I-72] was tested. Which pIC50 did it give?
A: The pIC50 was over 7.00.

Q: How did the pIC50 turn out when `Cc1cccn(CC2(c3ccccc3)NC(=O)NC2=O)c1=O` (racemic) [Compound I-1, 5-[(3-methyl-2-oxopyridin-1(2H)-yl)methyl]-5-phenyl-imidazolidine-2,4-dione] was run?
A: Its pIC50 is over 7.00.

Q: `Cc1cccn(CC2(c3ccc(S(C)(=O)=O)cc3)NC(=O)NC2=O)c1=O` (racemic) [Compound I-25, 5-[(3-methyl-2-oxopyridin-1(2H)-yl)methyl]-5-[4-(methylsulfonyl)phenyl]imidazolidine-2,4-dione] was tested. Which pIC50 did it give?
A: The pIC50 was over 7.00.

Q: `COc1ccc(C2(Cn3cccc(C)c3=O)NC(=O)NC2=O)cc1OC` (racemic) [Compound I-16, 5-(3,4-dimethoxyphenyl)-5-[(3-methyl-2-oxopyridin-1(2H)-yl)methyl]imidazolidine-2,4-dione] was tested. Which pIC50 did it give?
A: The pIC50 was over 7.00.

Q: How did the pIC50 turn out when `COc1ccc(C2(Cn3cccc(F)c3=O)NC(=O)NC2=O)cc1` (racemic) [Compound I-133] was run?
A: Its pIC50 is over 7.00.

Q: How did the pIC50 turn out when `CCCc1ccc(C2(Cn3cccc(C)c3=O)NC(=O)NC2=O)cc1` (racemic) [Compound I-45, 5-[(3-methyl-2-oxopyridin-1(2H)-yl)methyl]-5-(4-propylphenyl)imidazolidine-2,4-dione] was run?
A: Its pIC50 is over 7.00.

Q: With `Cc1cccn(CC2(c3cccc(O)c3)NC(=O)NC2=O)c1=O` (racemic) [Compound I-54, 5-(3-hydroxyphenyl)-5-[(3-methyl-2-oxopyridin-1(2H)-yl)methyl]imidazolidine-2,4-dione] as the compound, how does the pIC50 read?
A: Its pIC50 is at most 7.00.

Q: `O=C1NC(=O)C(Cn2cccc(CO)c2=O)(c2ccc(Cc3ccccc3)cc2)N1` (racemic) [Compound I-151] was tested. Which pIC50 did it give?
A: The pIC50 was at most 7.00.

Q: With `Cc1cccn(CC2(c3ccc(Oc4ccc(F)c(F)c4)cc3)NC(=O)NC2=O)c1=O` (racemic) [Compound I-98] as the compound, how does the pIC50 read?
A: The pIC50 was over 7.00.

Q: How did the pIC50 turn out when `COc1ccc(C)cc1C1(Cn2cccc(C)c2=O)NC(=O)NC1=O` (racemic) [Compound I-76] was run?
A: The pIC50 was at most 7.00.

Q: With `Cc1cccn(CC2(c3ccc4c(c3)OCCO4)NC(=O)NC2=O)c1=O` (racemic) [Compound I-59] as the compound, how does the pIC50 read?
A: Its pIC50 is over 7.00.

Q: `Cc1cccn(CC2(c3ccc(Oc4cccnc4)cc3)NC(=O)NC2=O)c1=O` (racemic) [Compound I-101] was tested. Which pIC50 did it give?
A: Its pIC50 is over 7.00.

Q: How did the pIC50 turn out when `Cc1cccn(CC2(c3cccc(F)c3F)NC(=O)NC2=O)c1=O` (racemic) [Compound I-153] was run?
A: The pIC50 was over 7.00.

Q: How did the pIC50 turn out when `O=C1NC(=O)C(Cn2cccc(F)c2=O)(c2ccc(Cc3ccccc3)cc2)N1` (racemic) [Compound I-152] was run?
A: The pIC50 was at most 7.00.

Q: `Cc1cccn(CC2(c3cccc(-c4ccccn4)c3)NC(=O)NC2=O)c1=O` (racemic) [Compound I-94] was tested. Which pIC50 did it give?
A: The pIC50 was over 7.00.

Q: `CCc1cccn(CC2(c3ccc(OC)cc3)NC(=O)NC2=O)c1=O` (racemic) [Compound I-53, 5-[(3-ethyl-2-oxopyridin-1(2H)-yl)methyl]-5-(4-methoxyphenyl)imidazolidine-2,4-dione] was tested. Which pIC50 did it give?
A: Its pIC50 is at most 7.00.

Q: With `Cc1cccn(CC2(c3cccc(Br)c3)NC(=O)NC2=O)c1=O` (racemic) [Compound I-57] as the compound, how does the pIC50 read?
A: The pIC50 was over 7.00.

Q: `COc1ccc(Oc2ccc(C3(Cn4cccc(C)c4=O)NC(=O)NC3=O)cc2)cc1` (racemic) [Compound I-81] was tested. Which pIC50 did it give?
A: The pIC50 was over 7.00.

Q: How did the pIC50 turn out when `Cc1cccn(CC2(c3ccc(Oc4cc(F)cc(F)c4)cc3)NC(=O)NC2=O)c1=O` (racemic) [Compound I-99] was run?
A: The pIC50 was over 7.00.

Q: With `Cc1cccn(CC2(c3ccc(C4CCCCC4)cc3)NC(=O)NC2=O)c1=O` (racemic) [Compound I-66] as the compound, how does the pIC50 read?
A: Its pIC50 is over 7.00.

Q: With `Cc1cccn(CC2(c3ccc(CCC4CCCCC4)cc3)NC(=O)NC2=O)c1=O` (racemic) [Compound I-118] as the compound, how does the pIC50 read?
A: The pIC50 was at most 7.00.

Q: `Cc1cccn(CC2(c3cccc(OC(F)(F)F)c3)NC(=O)NC2=O)c1=O` (racemic) [Compound I-67] was tested. Which pIC50 did it give?
A: Its pIC50 is over 7.00.

Q: `Cc1cccn(CC2(c3ccc4c(c3)CCCC4)NC(=O)NC2=O)c1=O` (racemic) [Compound I-77] was tested. Which pIC50 did it give?
A: The pIC50 was over 7.00.

Q: How did the pIC50 turn out when `C=C(C)c1ccc(C2(Cn3cccc(C)c3=O)NC(=O)NC2=O)cc1` (racemic) [Compound I-108] was run?
A: The pIC50 was over 7.00.

Q: `O=C1NC(=O)C(Cn2ccccc2=O)(c2ccc(F)c(F)c2)N1` (racemic) [Compound I-155] was tested. Which pIC50 did it give?
A: Its pIC50 is over 7.00.

Q: `Cc1cccn(CC2(c3ccc(OC(F)F)cc3)NC(=O)NC2=O)c1=O` (racemic) [Compound I-78] was tested. Which pIC50 did it give?
A: The pIC50 was over 7.00.

Q: With `Cc1cc(C2(Cn3cccc(C)c3=O)NC(=O)NC2=O)cc(C)c1OC1CCCC1` (racemic) [Compound I-129] as the compound, how does the pIC50 read?
A: The pIC50 was over 7.00.

Q: With `Cc1cccn(CC2(c3ccc(Oc4ccccc4F)cc3)NC(=O)NC2=O)c1=O` (racemic) [Compound I-86] as the compound, how does the pIC50 read?
A: The pIC50 was over 7.00.

Q: With `CCc1ccc(C2(Cn3cccc(C)c3=O)NC(=O)NC2=O)cc1` (racemic) [Compound I-116] as the compound, how does the pIC50 read?
A: The pIC50 was over 7.00.

Q: With `Cc1cccn(CC2(c3ccc(F)cc3F)NC(=O)NC2=O)c1=O` (racemic) [Compound I-61] as the compound, how does the pIC50 read?
A: Its pIC50 is at most 7.00.

Q: With `O=C1NC(=O)C(Cn2cccc(CO)c2=O)(c2ccc(F)c(F)c2)N1` (racemic) [Compound I-148] as the compound, how does the pIC50 read?
A: Its pIC50 is at most 7.00.

Q: How did the pIC50 turn out when `Cc1cccn(CC2(c3ccc(Oc4ccccc4F)c(F)c3)NC(=O)NC2=O)c1=O` (racemic) [Compound I-104] was run?
A: The pIC50 was over 7.00.

Q: How did the pIC50 turn out when `Cc1cccn(CC2(c3ccc(Oc4cccnc4)c(F)c3)NC(=O)NC2=O)c1=O` (racemic) [Compound I-122] was run?
A: The pIC50 was over 7.00.

Q: `COc1cc(C2(Cn3cccc(C)c3=O)NC(=O)NC2=O)ccc1F` (racemic) [Compound I-12, 5-(4-fluoro-3-methoxyphenyl)-5-[(3-methyl-2-oxopyridin-1(2H)-yl)methyl]imidazolidine-2,4-dione] was tested. Which pIC50 did it give?
A: The pIC50 was over 7.00.

Q: With `Cc1cccn(CC2(c3ccc(-c4ccc(F)cc4)cc3)NC(=O)NC2=O)c1=O` (racemic) [Compound I-75] as the compound, how does the pIC50 read?
A: The pIC50 was over 7.00.

Q: `Cc1cccn(CC2(c3cccc(-c4ccncc4)c3)NC(=O)NC2=O)c1=O` (racemic) [Compound I-95] was tested. Which pIC50 did it give?
A: The pIC50 was over 7.00.

Q: With `COc1ccc(Cl)cc1C1(Cn2cccc(C)c2=O)NC(=O)NC1=O` (racemic) [Compound I-27, 5-(5-chloro-2-methoxyphenyl)-5-[(3-methyl-2-oxopyridin-1(2H)-yl)methyl]imidazolidine-2,4-dione] as the compound, how does the pIC50 read?
A: The pIC50 was over 7.00.

Q: How did the pIC50 turn out when `Cc1cccn(CC2(c3ccc(Oc4cccc(C(F)(F)F)c4)cc3)NC(=O)NC2=O)c1=O` (racemic) [Compound I-100] was run?
A: The pIC50 was over 7.00.

Q: With `Cc1cccn(CC2(c3ccc(-c4cccnc4)cc3)NC(=O)NC2=O)c1=O` (racemic) [Compound I-32, 5-[(3-methyl-2-oxopyridin-1(2H)-yl)methyl]-5-[4-(pyridin-3-yl)phenyl]imidazolidine-2,4-dione] as the compound, how does the pIC50 read?
A: The pIC50 was over 7.00.

Q: `Cc1cccn(CC2(c3ccc(Oc4ccccc4)c(Cl)c3)NC(=O)NC2=O)c1=O` (racemic) [Compound I-123] was tested. Which pIC50 did it give?
A: Its pIC50 is over 7.00.

Q: With `COc1ccccc1Oc1ccc(C2(Cn3cccc(C)c3=O)NC(=O)NC2=O)cc1` (racemic) [Compound I-113] as the compound, how does the pIC50 read?
A: Its pIC50 is over 7.00.

Q: How did the pIC50 turn out when `O=C1NC(=O)C(Cn2cccc(Br)c2=O)(c2ccc(F)c(F)c2)N1` (racemic) [Compound I-147] was run?
A: The pIC50 was over 7.00.

Q: `Cc1cccn(CC2(c3ccc(Oc4ccc(F)cc4)c(F)c3)NC(=O)NC2=O)c1=O` (racemic) [Compound I-111] was tested. Which pIC50 did it give?
A: Its pIC50 is over 7.00.

Q: `COc1ccccc1-c1ccc(C2(Cn3cccc(C)c3=O)NC(=O)NC2=O)cc1` (racemic) [Compound I-74] was tested. Which pIC50 did it give?
A: The pIC50 was over 7.00.

Q: How did the pIC50 turn out when `Cc1noc(C)c1-c1ccc(C2(Cn3cccc(C)c3=O)NC(=O)NC2=O)cc1` (racemic) [Compound I-90] was run?
A: Its pIC50 is over 7.00.

Q: How did the pIC50 turn out when `Cc1cccn(CC2(c3ccc(Oc4ccc(Cl)cc4)cc3)NC(=O)NC2=O)c1=O` (racemic) [Compound I-82] was run?
A: Its pIC50 is over 7.00.

Q: `Cc1cccn(CC2(c3cc(F)ccc3F)NC(=O)NC2=O)c1=O` (racemic) [Compound I-154] was tested. Which pIC50 did it give?
A: Its pIC50 is over 7.00.

Q: How did the pIC50 turn out when `O=C1NC(=O)C(Cn2ccccc2=O)(c2ccccc2)N1` (racemic) [Compound I-46, 5-[(2-oxopyridin-1(2H)-yl)methyl]-5-phenylimidazolidine-2,4-dione] was run?
A: Its pIC50 is over 7.00.

Q: With `O=C1NC(=O)C(Cn2cccc(Cl)c2=O)(c2ccc(F)cc2)N1` (racemic) [Compound I-136] as the compound, how does the pIC50 read?
A: Its pIC50 is over 7.00.

Q: With `COc1cccc(C2(Cn3cccc(C)c3=O)NC(=O)NC2=O)c1` (racemic) [Compound I-4, 5-(3-methoxyphenyl)-5-[(3-methyl-2-oxopyridin-1(2H)-yl)methyl]imidazolidine-2,4-dione] as the compound, how does the pIC50 read?
A: Its pIC50 is over 7.00.

Q: With `Cc1cccn(CC2(c3ccc(Oc4ccccc4)cc3)NC(=O)NC2=O)c1=O` (racemic) [Compound I-9, 5-[(3-methyl-2-oxopyridin-1(2H)-yl)methyl]-5-(4-phenoxyphenyl)imidazolidine-2,4-dione] as the compound, how does the pIC50 read?
A: Its pIC50 is over 7.00.

Q: How did the pIC50 turn out when `Cc1cccn(CC2(c3ccc(F)c(Cl)c3)NC(=O)NC2=O)c1=O` (racemic) [Compound I-126] was run?
A: The pIC50 was over 7.00.
